The results in this text go back to patent EP4741392A1, “1H-PYRAZOLO[4,3-C]PYRIDINE COMPOUND, AND COMPOSITION THEREOF AND USE THEREOF” (Shenzhen TargetRx Co., Ltd., priority 2023, dated 2025).

What all share (format): cell-based
In assay [1] the test system is TMD8 cells. The experiment in a line: Viability assay of TMD8 cells (CTG). To be noted: Homo sapiens, cell viability, 120 hours. How it is done:
(§1) The in vitro antiproliferative activity of the compounds of the present disclosure against TMD8 cells and OCI-LY10 cells was assayed using CTG (Cell Titer-Glo) luminescent cell viability assay. The specific assay methods were as follows. • a) TMD8 cells were cultured at 37 °C and 5% CO2 in complete medium [RPMI 1640 (supplier Gibco, product number 22400-089) + 10% FBS (supplier Gibco, product number 10091-148) + 1% P/S (supplier Hyclone, product number SV30010)]; OCI-LY10 cells were cultured at 37 °C and 5% CO2 in medium [IMDM (supplier Gibco, product number 31980-030) + 20% FBS (supplier Gibco, product number 10091-148) + 1% P/S (supplier Hyclone, product number SV30010) + 0.05 mM 2-Mercaptoethanol (supplier Sigma, product number M6250)]. • b) Cells in the logarithmic growth phase were harvested, and the total cell count and viable cell count were determined using a Vi-cell cell counter (supplier: BECKMAN COULTER, product number 2785198). • c) Cell density was adjusted using complete culture medium. Then, the cells were inoculated at 1500 cells per well in a 384-well cell culture plate (supplier Greiner, product number 781090). • d) The cells in the 384-well plate were cultured at 37 °C and 5% CO2 overnight. • e) A 10-fold drug solution was prepared, and then the serially diluted compound was transferred to the corresponding assay wells of the 384-well cell plate so that the final assay concentration was 1000 nM, with 9 concentrations, 3-fold dilutions, and triplicates for each drug concentration. • f) The cells in the 384-well plate with the drug added were cultured at 37 °C and 5% CO2 for another 120 hours. • g) The cells were removed from the incubator, and allowed to equilibrate at room temperature for 30 minutes. The cell state and compound solubility were observed under a microscope. • h) An equal volume of CellTiterGlo solution (supplier Promega, product number G7573) was added to each well, and the plate was incubated at room temperature for 30 minutes. • i) Then, the luminescent signal value was detected on an EnVision instrument (supplier PerkinElmer, product number 2441715).
(§2) The data were analyzed using XL-fit software (supplier: ID Business Solutions Ltd., software version: XL fit 5.5.0.5). Nonlinear regression was performed using X=Log(X), and the X values were transformed using a four-parameter Logistic model 205, from which the IC50 values were calculated. Inhibition rate % = (Max−samplevalue)/Max*100.(Max:DMSOnegativecontrol) [formula]

The subject of assay [2] is OCI-LY10 cells. The experiment in a line: Viability assay of OCI-LY10 cells (CTG). Conditions: Homo sapiens, OCI-Ly10, 120 h, cell viability, read-out: OCl-Ly10. As to the method:
as §1, §2

In assay [3] the test system is Ramos cells with BTK WT. The experiment in a line: Phosphor-BTK(Y223) assay, suspended cells. To be noted: Homo sapiens, Ramos, phosphorylated BTK Y223, Ramos cells with BTK WT. In short, it runs like this:
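Ramos BTK WT cells (2.5 k/well) were treated with compound dilutions for 2 h at 37 °C, then 5 mM Na3VO4 for 3 h. Lysates were read by HTRF p-BTK(Y223) cryptate/d2 antibodies overnight at RT (665/620 ratio). IC50 came from a four-parameter fit of % inhibition versus blank and positive-control wells.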

Take `COc1ccc(F)cc1C(=O)NCc1ccc(-c2ncc(-c3ccn(C)n3)c3[nH]nc(N)c23)cc1` [Example 23, N-(4-(3-amino-7-(1-methyl-1H-pyrazol-3-yl)-1H-pyrazolo[4,3-c]pyridin-4-yl)benzyl)-5-fluoro-2-methoxybenzamide]: the IC50 in assay [1], in assay [2] and in assay [3] was no more than 5 nM throughout.

Consider `COc1ccc(F)cc1C(=O)NCc1ccc(-c2ncc(-c3ccc(C(F)(F)F)cn3)c3[nH]nc(N)c23)cc1` [Example 24, N-(4-(3-amino-7-(5-(trifluoromethyl)pyridin-2-yl)-1H-pyrazolo[4,3-c]pyridin-4-yl)benzyl)-5-fluoro-2-methoxybenzamide], for which the IC50 is no more than 5 nM in assay [1], 10 to 50 nM in assay [2] and no more than 5 nM in assay [3].

As for `COc1ccc(F)cc1C(=O)NCc1ccc(-c2ncc(-c3ccc(S(C)(=O)=O)cn3)c3[nH]nc(N)c23)cc1` [Example 35, N-(4-(3-amino-7-(5-(methylsulfonyl)pyridin-2-yl)-1H-pyrazolo[4,3-c]pyridin-4-yl)benzyl)-5-fluoro-2-methoxybenzamide], the IC50 in assay [1], in assay [2] and in assay [3] was no more than 5 nM throughout.

Take `COc1ccc(F)cc1C(=O)NCc1ccc(-c2ncc(-c3ccc(C)cn3)c3[nH]nc(N)c23)cc1` [Example 37, N-(4-(3-amino-7-(5-methylpyridin-2-yl)-1H-pyrazolo[4,3-c]pyridin-4-yl)benzyl)-5-fluoro-2-methoxybenzamide]: the IC50 in assay [1], in assay [2] and in assay [3] was no more than 5 nM in each case.

In the case of `COc1ccc(F)cc1C(=O)NCc1ccc(-c2ncc(-c3ccc(C4COC4)cn3)c3[nH]nc(N)c23)cc1` [Example 43, N-(4-(3-amino-7-(5-(oxetan-3-yl)pyridin-2-yl)-1H-pyrazolo[4,3-c]pyridin-4-yl)benzyl)-5-fluoro-2-methoxybenzamide], the IC50 in assay [1], in assay [2] and in assay [3] was no more than 5 nM in each case.

As for `COc1ccc(F)cc1C(=O)NCc1ccc(-c2ncc(-c3cc4ncccn4n3)c3[nH]nc(N)c23)cc1` [Example 44, N-(4-(3-amino-7-(pyrazolo[1,5-a]pyrimidin-2-yl)-1H-pyrazolo[4,3-c]pyridin-4-yl)benzyl)-5-fluoro-2-methoxybenzamide], the IC50 in assay [1], in assay [2] and in assay [3] was no more than 5 nM in each case.

For `COc1ccc(F)cc1C(=O)NCc1ccc(-c2ncc(-c3ccn4nccc4n3)c3[nH]nc(N)c23)cc1` [Example 46, N-(4-(3-amino-7-(pyrazolo[1,5-a]pyrimidin-5-yl)-1H-pyrazolo[4,3-c]pyridin-4-yl)benzyl)-5-fluoro-2-methoxybenzamide], the IC50 in assay [1] was no more than 5 nM; in assay [2] it was 5 to 10 nM; in assay [3], no more than 5 nM.

Turning to `COc1ccc(F)cc1C(=O)NCc1ccc(-c2ncc(-c3ccc(C(=O)N4CCOCC4)cn3)c3[nH]nc(N)c23)cc1` [Example 52, N-(4-(3-amino-7-(5-(morpholine-4-carbonyl)pyridin-2-yl)-1H-pyrazolo[4,3-c]pyridin-4-yl)benzyl)-5-fluoro-2-methoxybenzamide], the IC50 in assay [1], in assay [2] and in assay [3] was no more than 5 nM in each case.

For the compound `COc1ccc(F)cc1C(=O)NCc1ccc(-c2ncc(-c3ccc(C(=O)N4C[C@H](C)O[C@@H](C)C4)cn3)c3[nH]nc(N)c23)cc1` [Example 53, N-(4-(3-amino-7-(5-((2S,6S)-2,6-dimethylmorpholine-4-carbonyl)pyridin-2-yl)-1H-pyrazolo[4,3-c]pyridin-4-yl)benzyl)-5-fluoro-2-methoxybenzamide], the figures for the IC50 in assay [1], in assay [2] and in assay [3] were no more than 5 nM, no more than 5 nM and 5 to 10 nM, respectively.
